The values below come from PMC5113031, “Variant Exported Blood-Stage Proteins Encoded by Plasmodium Multigene Families Are Expressed in Liver Stages Where They Are Exported into the Parasitophorous Vacuole” (PLoS Pathogens, 2016).

For this experiment, the target named is T1, P. falciparum Fam-A (PF3D7_1463500) (Plasmodium falciparum, UniProt Q8IKK1).
T1 construct: region encoding START domain, codon-optimised, cloned in pMALc2x, N-terminal His6, E. coli BL21(DE3), Ni and SEC, monomeric
Nature of the experiment: […]-PC transfer from donor to acceptor vesicles. The experiment is classed as biochemical. The following applies: pH 7.4, 37 °C, 30 min, 25 μg/ml protein, BSA 1 mg/ml; labelled compound (14C).

The structures appear in SMILES notation.

T1 sequence (Q8IKK1 entry or part of it): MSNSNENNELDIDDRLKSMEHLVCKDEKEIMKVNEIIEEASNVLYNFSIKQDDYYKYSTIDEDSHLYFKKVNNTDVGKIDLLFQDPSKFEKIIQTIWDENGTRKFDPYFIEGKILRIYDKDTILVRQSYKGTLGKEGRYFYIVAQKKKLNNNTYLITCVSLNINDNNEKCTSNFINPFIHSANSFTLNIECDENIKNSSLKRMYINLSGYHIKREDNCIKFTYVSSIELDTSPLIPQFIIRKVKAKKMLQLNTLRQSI

As to `CCCCCCCCCCCCCCCC(=O)OC[C@H](COP(=O)([O-])OCC[N+](C)(C)C)OC(=O)CCCCCCCCCCCCCCC` [L-α-DiPalmitoyl-Phosphatidylcholine], the PC transfer activity entry is reported as “P. falciparum Fam-A reproducibly showed a lower, but detectable, level of PC transfer activity”.
